This is an account of results in patent US11147799B2, “Topical pharmaceutical composition containing phenytoin and a (co-) analgesic for the treatment of chronic pain” (Topical Innovations B.V., priority 2016, dated 2021).

The subject of data set [1] is neuropathic pain. Briefly: Earlier oral medication of the case patients (case histories). As to conditions: case history of the individual patient.
Data set [2] deals with neuropathic pain. The note with it: 21% for placebo; cited from earlier work.
The conditions of data set [3]: after oral administration; corresponding tissue; cited from earlier work.

Entries after “also recorded” stand apart in the source; their conditions may differ.

For the compound `COc1ccc(C(CN(C)C)C2(O)CCCCC2)cc1` (centres unmarked) [venlafaxine], the “side effects of earlier oral medication” value in the data set on neuropathic pain [1] is “induced nausea”. Consider `NCC1(CC(=O)O)CCCCC1` [gabapentin], for which, in the data set on neuropathic pain [1], the “side effects of earlier oral medication” value was “too much side effects”. The “patients who achieved 50% or more pain relief” value in the data set on neuropathic pain [2] is “about 35%”. As for `CC(C)C[C@H](CN)CC(=O)O` [pregabalin], in the data set on neuropathic pain [1], the “pain relieving effect of earlier oral medication (words)” value (“pain relieving effect” below) is given as “without sufficient pain reduction; also recorded: had a pain reducing effect”; the “side effects of earlier oral medication” value was “anxiety and depression; also recorded: too much side effects”. In the data set on neuropathic pain [1] (listed as Pregabalin), the “pain relieving effect” value is on record as “did not have any effect”.

In the case of `O=C(O)Cc1ccccc1Nc1c(Cl)cccc1Cl` [diclofenac], the “Cmax of diclofenac in muscles” value in data set [3] is 1160 ng/mL. Take `CN(C)CCC=C1c2ccccc2CCc2ccccc21` [Amitriptyline]: the “pain relieving effect” value in the data set on neuropathic pain [1] was “did not have any pain relieving effect”.
